Experimental data: US9802997B2, “Peptides and combination of peptides for use in immunotherapy against various tumors” (immatics biotechnologies GmbH, priority 2015, dated 2017)

Experiments:
[1] = system: CD8+ T cells of healthy HLA-A*02 donors; experiment: In vitro immunogenicity: in vitro T-cell priming with aAPCs loaded with peptide/MHC complexes and anti-CD28 antibody, pMHC multimer readout; type: cell-based, human; settings: HLA-A*02 restricted peptides; percentage of positive wells among evaluable
Text: In order to obtain information regarding the immunogenicity of the TUMAPs of the present invention, the inventors performed investigations using an in vitro T-cell priming assay based on repeated stimulations of CD8+ T cells with artificial antigen presenting cells (aAPCs) loaded with peptide/MHC complexes and anti-CD28 antibody.
In order to perform in vitro stimulations by artificial antigen presenting cells loaded with peptide-MHC complex (pMHC) and anti-CD28 antibody, the inventors first isolated CD8+ T cells from fresh HLA-A*02 leukapheresis products via positive selection using CD8 microbeads (Miltenyi Biotec, Bergisch-Gladbach, Germany) of healthy donors obtained from the University clinics Mannheim, Germany, after informed consent. PBMCs and isolated CD8+ lymphocytes were incubated in T-cell medium (TCM) until use consisting of RPMI-Glutamax (Invitrogen, Karlsruhe, Germany) supplemented with 10% heat inactivated human AB serum (PAN-Biotech, Aidenbach, Germany), 100 U/ml Penicillin/100 μg/ml Streptomycin (Cambrex, Cologne, Germany), 1 mM sodium pyruvate (CC Pro, Oberdorla, Germany), 20 μg/ml Gentamycin (Cambrex). 2.5 ng/ml IL-7 (PromoCell, Heidelberg, Germany) and 10 U/ml IL-2 (Novartis Pharma, Nürnberg, Germany) were also added to the TCM at this step. Generation of pMHC/anti-CD28 coated beads, T-cell stimulations and readout was performed in a highly defined in vitro system using four different pMHC molecules per stimulation condition and 8 different pMHC molecules per readout condition.
The purified co-stimulatory mouse IgG2a anti human CD28 Ab 9.3 (Jung et al., 1987) was chemically biotinylated using Sulfo-N-hydroxysuccinimidobiotin as recommended by the manufacturer (Perbio, Bonn, Germany). Beads used were 5.6 μm diameter streptavidin coated polystyrene particles (Bangs Laboratories, Illinois, USA).
pMHC used for positive and negative control stimulations were A*0201/MLA-001 (peptide […] (SEQ ID NO. 289) from modified Melan-A/MART-1) and A*0201/DDX5-001 ([…] from DDX5, SEQ ID NO. 290), respectively.
800.000 beads/200 μl were coated in 96-well plates in the presence of 4×12.5 ng different biotin-pMHC, washed and 600 ng biotin anti-CD28 were added subsequently in a volume of 200 μl. Stimulations were initiated in 96-well plates by co-incubating 1×10^6 CD8+ T cells with 2×10^5 washed coated beads in 200 μl TCM supplemented with 5 ng/ml IL-12 (PromoCell) for 3 days at 37° C. Half of the medium was then exchanged by fresh TCM supplemented with 80 U/ml IL-2 and incubating was continued for 4 days at 37° C. This stimulation cycle was performed for a total of three times. For the pMHC multimer readout using 8 different pMHC molecules per condition, a two-dimensional combinatorial coding approach was used as previously described (Andersen et al., 2012) with minor modifications encompassing coupling to 5 different fluorochromes. Finally, multimeric analyses were performed by staining the cells with Live/dead near IR dye (Invitrogen, Karlsruhe, Germany), CD8-FITC antibody clone SK1 (BD, Heidelberg, Germany) and fluorescent pMHC multimers. For analysis, a BD LSRII SORP cytometer equipped with appropriate lasers and filters was used. Peptide specific cells were calculated as percentage of total CD8+ cells. Evaluation of multimeric analysis was done using the FlowJo software (Tree Star, Oregon, USA). In vitro priming of specific multimer+CD8+ lymphocytes was detected by comparing to negative control stimulations.

[2] = target: HLA-A*02:01 (Homo sapiens, UniProt P04439, D140Y/D185E/D98H/E176V/E277Q/G131W/G231S/I119V/I121R/I166T/I218V/L300P/L318F/N151K/N90K/P208A/P217A/Q86G/Q94H/R138H/R169H/T345S); experiment: MHC binding assay (UV-ligand exchange, beta2m ELISA); settings: binding to HLA-A*02:01, β2m ELISA
How it was run: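 Exchange yield, UV-ligand exchange: 100-fold diluted samples on streptavidin plates, 1 h at 37 °C; HRP anti-β2m 1 h at 37 °C; TMB read at 450 nm.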

Substance	Peptide exchange (MHC class I binding score, peptide exchange yield) [2]	Wells positive [%] [1]
89 (SLAETIFIV; listed as Homo sapiens) [compound 89]	+++ (≧50 = +++)	+ (<20% = +)
267 (YLLDMPLWYL; listed as Homo sapiens) [compound 267]	+++ (≧50 = +++)	+ (<20% = +)
4 (VLFGELPAL; listed as Homo sapiens) [compound 4]	+++ (≧50 = +++)	+ (<20% = +)
27 (GLLGKVTSV; listed as Homo sapiens) [compound 27]	+++ (≧50 = +++)	+ (<20% = +)
102 (GLYPVTLVGV; listed as Homo sapiens) [compound 102]	+++ (≧50 = +++)	+ (<20% = +)
255 (FLMKNSDLYGA; listed as Homo sapiens) [compound 255]	+++ (≧50 = +++)	+ (<20% = +)
17 (GLLPSAESIKL; listed as Homo sapiens) [compound 17]	++++ (≧75% = ++++)	+ (<20% = +)
236 (KMSELQTYV; listed as Homo sapiens) [compound 236]	+++ (≧50 = +++)	+ (<20% = +)
34 (TLNTLDINL; listed as Homo sapiens) [compound 34]	+++ (≧50 = +++)	++++ (>=70% = ++++)
257 (KLIDHQGLYL; listed as Homo sapiens) [compound 257]	+++ (≧50 = +++)	+ (<20% = +)
260 (ALNESLVEC; listed as Homo sapiens) [compound 260]	+++ (≧50 = +++)	+ (<20% = +)
254 (ALGDKFLLRV; listed as Homo sapiens) [compound 254]	++ (≧20% = ++)	+ (<20% = +)
97 (KLFEKSTGL; listed as Homo sapiens) [compound 97]	+++ (≧50 = +++)	+ (<20% = +)
14 (YTFSGDVQL; listed as Homo sapiens) [compound 14]	+++ (≧50 = +++)	+ (<20% = +)
263 (SIIEYLPTL; listed as Homo sapiens) [compound 263]	+++ (≧50 = +++)	+ (<20% = +)
35 (VIIKGLEEI; listed as Homo sapiens) [compound 35]	++ (≧20% = ++)	+ (<20% = +)
242 (KLQEEIPVL; listed as Homo sapiens) [compound 242]	+++ (≧50 = +++)	+ (<20% = +)

Continued, in another order:

Peptide exchange (MHC class I binding score, peptide exchange yield) [2]	Substance	Wells positive [%] [1]
++ (≧20% = ++)	264 (TLHDQVHLL; listed as Homo sapiens) [compound 264]	+ (<20% = +)
++ (≧20% = ++)	29 (KMISAIPTL; listed as Homo sapiens) [compound 29]	+ (<20% = +)
+++ (≧50 = +++)	101 (SLLEVNEASSV; listed as Homo sapiens) [compound 101]	+ (<20% = +)
+++ (≧50 = +++)	39 (YLEDGFAYV; listed as Homo sapiens) [compound 39]	++++ (>=70% = ++++)
+++ (≧50 = +++)	9 (SLITGQDLLSV; listed as Homo sapiens) [compound 9]	+ (<20% = +)
+++ (≧50 = +++)	233 (SLFESLEYL; listed as Homo sapiens) [compound 233]	+ (<20% = +)
++ (≧20% = ++)	121 (ALYVQAPTV; listed as Homo sapiens) [compound 121]	+ (<20% = +)
+++ (≧50 = +++)	77 (ALYGNVQQV; listed as Homo sapiens) [compound 77]	+ (<20% = +)
+++ (≧50 = +++)	50 (ILLSVLHQL; listed as Homo sapiens) [compound 50]	+ (<20% = +)
